According to patent US20070197510A1, “Nitriles and medicinal compositions containing the same as the active ingredient” (priority 2004, published 2007):

Biological target: T1, cathepsin K (Homo sapiens, UniProt P43235)
T1 sequence (P43235 115-329): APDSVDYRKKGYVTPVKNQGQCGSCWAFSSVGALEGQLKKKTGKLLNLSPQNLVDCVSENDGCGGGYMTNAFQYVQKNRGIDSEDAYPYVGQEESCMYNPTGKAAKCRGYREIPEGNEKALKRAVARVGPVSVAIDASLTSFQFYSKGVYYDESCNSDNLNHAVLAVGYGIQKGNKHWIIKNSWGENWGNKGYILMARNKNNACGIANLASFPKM
Assay: Measurement of cathepsin K inhibitory activity
Assay type: biochemical
Conditions: fluorogenic substrate Boc-Ala-Gly-Pro-Arg-MCA, pH 5.5, 37° C.
Protocol: (i) Measurement of Cathepsin k Inhibitory Activity
65 μL of Cathepsin K Enzyme Reaction Buffer (50 Mmol/L of 2-(N-morpholino)ethanesulfonate, 2 mmol/L of ethylenediaminetetraacetate (EDTA) and 4 mmol/L of dithiothreitol (DTT) were mixed to adjust to pH 5.5), 5 μL of cysteine protease inhibitor solution of several concentrations, 20 μL of synthesized substrate (t-butyloxycarbonyl-L-alanyl-glycyl-L-prolyl-L-arginine-[…]) solution of several concentrations and 10 μL of cathepsin K enzyme solution were mixed and the increase of fluorescence intensity when reacted at 37° C. was measured (λex (excitation wavelength)=355 nm, λem (fluorescence wavelength)=460 nm). As to the substrate and the compound of the present invention, enzyme reactions were carried […]

| Structure (SMILES) | IC50 [nM] |
| --- | --- |
| CN1CCN(C(=O)CN2Cc3cnc(C#N)nc3N(CC(C)(C)C)C2=O)CC1 [Example 55(14), 8-(2,2-dimethylpropyl)-6-[2-(4-methyl-1-piperazinyl)-2-oxoethyl]-7-oxo-5,6,7,8-tetrahydropyrimido[4,5-d]pyrimidine-2-carbonitrile] | 12 |
| CC(C)(C)Cn1c2nc(C#N)ncc2c(=O)n1Cc1cccs1 [compound 8(2B), 1-(2,2-dimethylpropyl)-3-oxo-2-(2-thienylmethyl)-2,3-dihydro-1H-pyrazolo[3,4-d]pyrimidine-6-carbonitrile] | 2.9 |
